Measurements from US9708274B2, “Sulfoximine substituted quinazolines for pharmaceutical compositions” (EVOTEC INTERNATIONAL GMBH, priority 2013, dated 2017).
Blank lines part the entries; values can stand above or below the compound they belong to.

Legend:
[1] = tested on: cell culture cells, transfected with MNK2 (MNK2a or MNK2b) or MNK1; conditions: addition to cell culture cells transfected with MNK2 (MNK2a or MNK2b) or MNK1; cited from earlier work
MNK2a = MNK2a (Homo sapiens (Human), UniProt Q9HBH9); test: MNK2a in vitro kinase assay (Assay 2), ADP-Glo; format: biochemical; conditions: read-out: MNK2 IC50
Protocol: The white, 384-well OptiPlate F plates were purchased from PerkinElmer. The ADP-Glo Kinase Assay (including ultra pure ATP) was purchased from Promega (V9103). Activated MNK2a was obtained as described in WO2011/104340. […] All other materials were of highest grade commercially available. Compounds are tested in either serial dilutions or single dose concentrations. The compound stock solutions are 10 mM in 100% DMSO The serial compound dilutions are prepared in 100% DMSO followed by 1:27.3 intermediate dilution in assay buffer. The final DMSO concentration in assay will be <3%.
In the 384-well plates 3 μl of test compound from the intermediate dilution is mixed with 4 μl of the activated MNK2 enzyme (final concentration of 10 nM) and 4 μl of the peptide (final concentration of 25 μM)/ultra pure ATP (final concentration of 20 μM), all dissolved in assay buffer. This step is followed by an incubation time of 90 min, then 10 μl of ADP Glo reagent are added, followed by 40 min of incubation. Then 20 μl of kinase detection reagent are admixed. The plates are sealed and after an incubation period of 30 min, the luminescence signal is measured in an Envision reader to determine the amount of produced ADP. All incubation steps are performed at room temperature. […]
IC50 values based on dose response curves are calculated with the AssayExplorer software.

MNK1a = MNK1a (Homo sapiens (Human), UniProt Q9BUB5); test: MNK1 in vitro kinase assay (Assay 3), Z'-LYTE; format: biochemical; conditions: compound concentration of 1 μM
Description: C. MNK1 In Vitro Kinase Assay (Assay 3)
MNK1 Data can be obtained from the MNK1 Z′-LYTE® assay. The MNK1 Z′-LYTE® screening protocol and assay conditions are also described on www.invitrogen.com.
The assay is described as follows:
The Z′-LYTE® biochemical assay employs a fluorescence-based, coupled-enzyme format and is based on the differential sensitivity of phosphorylated and non-phosphorylated peptides to proteolytic cleavage. The peptide substrate is labeled with two fluorophores—one at each end—that make up a FRET pair.
In the primary reaction, the kinase transfers the gamma-phosphate of ATP to a single tyrosine, serine or threonine residue in a synthetic FRET-peptide. In the secondary reaction, a site-specific protease recognizes and cleaves non-phosphorylated FRET-peptides. Phosphorylation of FRET-peptides suppresses cleavage by the Development Reagent. […] A ratiometric method, which calculates the ratio (the Emission Ratio) of donor emission to acceptor emission after excitation of the donor fluorophore at 400 nm, is used to quantitate reaction progress, as shown in the equation below.
ASSAY SETUP: The inhibition of kinase activity of MNK1a was assessed using pre-activated GST-MNK1a. […]
9. Read on fluorescence plate reader and analyze the data […]

MNK1a, sequence (Q9BUB5 other isoform, or with tags, fused parts or gaps): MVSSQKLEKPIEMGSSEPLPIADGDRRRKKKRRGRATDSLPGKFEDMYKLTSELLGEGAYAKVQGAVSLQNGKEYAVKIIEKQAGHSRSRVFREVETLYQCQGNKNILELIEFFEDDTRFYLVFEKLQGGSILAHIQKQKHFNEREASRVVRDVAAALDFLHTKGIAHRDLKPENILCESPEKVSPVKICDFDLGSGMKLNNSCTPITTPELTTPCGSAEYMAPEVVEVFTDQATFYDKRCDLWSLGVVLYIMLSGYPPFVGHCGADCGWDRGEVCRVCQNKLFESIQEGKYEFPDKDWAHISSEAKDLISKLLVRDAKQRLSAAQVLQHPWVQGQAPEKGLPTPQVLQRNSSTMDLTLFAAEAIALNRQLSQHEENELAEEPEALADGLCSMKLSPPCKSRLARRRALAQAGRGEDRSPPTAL
MNK2a, sequence (Q9HBH9 whole entry): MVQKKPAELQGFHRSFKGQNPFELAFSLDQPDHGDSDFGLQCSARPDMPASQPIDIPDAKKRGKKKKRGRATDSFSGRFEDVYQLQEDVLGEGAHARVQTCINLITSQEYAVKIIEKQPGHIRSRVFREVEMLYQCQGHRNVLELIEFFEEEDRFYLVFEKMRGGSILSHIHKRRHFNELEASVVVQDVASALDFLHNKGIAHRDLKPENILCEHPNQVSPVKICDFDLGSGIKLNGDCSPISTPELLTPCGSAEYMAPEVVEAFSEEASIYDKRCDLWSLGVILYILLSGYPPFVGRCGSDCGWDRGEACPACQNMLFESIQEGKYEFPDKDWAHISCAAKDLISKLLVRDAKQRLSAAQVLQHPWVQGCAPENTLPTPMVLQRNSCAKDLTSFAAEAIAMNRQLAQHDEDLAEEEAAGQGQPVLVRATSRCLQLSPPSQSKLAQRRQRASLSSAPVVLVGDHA

Compound: Nc1ncnc2n[nH]c(Nc3ccc(F)cc3)c12 [CGP57380]
- reduction of phosphorylated eIF4E [1]: strong reduction of phosphorylated eIF4E

- IC50 (MNK2a): 2 nM
Compound: C[C@@H](Oc1cc(F)ccc1Nc1ncnc2cc(N=S3(=O)CCC3)cc(F)c12)C(=O)NCCC(F)(F)F [Example 4.108]

Compound: C[C@H](NC(=O)[C@@H](C)Oc1cc(F)ccc1Nc1ncnc2cc(N=S3(=O)CCC3)cc(F)c12)C(F)(F)F [Example 4.136]
- MNK1 % INH (MNK1a): 93%
